Biological target: T1, human adenosine A3 receptor (Homo sapiens, UniProt P0DMS8)
T1 construct: expressed in transfected cells; membrane fraction
T1 sequence (P0DMS8 1-318): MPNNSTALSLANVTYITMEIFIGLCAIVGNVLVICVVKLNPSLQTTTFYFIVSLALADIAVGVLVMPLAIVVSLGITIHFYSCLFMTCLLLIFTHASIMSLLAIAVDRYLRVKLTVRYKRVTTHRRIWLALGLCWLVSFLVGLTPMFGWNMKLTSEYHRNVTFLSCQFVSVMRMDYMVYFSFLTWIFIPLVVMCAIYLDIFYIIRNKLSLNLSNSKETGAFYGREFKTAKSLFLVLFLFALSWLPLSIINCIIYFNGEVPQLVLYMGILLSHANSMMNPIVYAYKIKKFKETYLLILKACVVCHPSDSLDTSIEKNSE
Assay: Adenosine A3 receptor binding test
Details: membrane fraction of A3AR/CHO strain, [3H]-NECA 10 nM, room temperature 1 hour; read-out: IC50 (concentration necessary for decreasing an amount of binding of [3H]-NECA to the membrane fraction by 50%)
Description: Genetic procedures were according to a method described in Molecular Cloning, published by Cold Spring Harbor, Laboratory, 1989 or a method described in the attached protocol of the reagent.
1) Cloning of Human Adenosine A3 Receptor
Cloning of an adenosine A3 receptor gene was performed from human brain cDNA by a PCR method. A PCR reaction was performed with a DNA thermal cycler 480 (Perkin Elmer) by using 1 ng of brain cDNA (Toyobo, QUICK-Clone cDNA) as a template, adding each 50 pmol of a primer set 5′-[…]-3′ (SEQ ID NO: 1) and 5′-[…]-3′ (SEQ ID NO: 2) made by reference to adenosine A3 receptor gene base sequence reported by Salvatore et al. (Proc. Natl. Acad. Sci. U.S.A., 90:10365-10369, 1993) and employing Takara LA PCR Kit Ver. 2 (Takara Shuzo) (reaction conditions: 35 cycles of 1 minute at 95° C., 1 minute at 66° C., 2 minutes at 75° C.). The resulting PCR product was subjected to agarose gel electrophoresis and 1.0 kb of DNA fragment was recovered and, thereafter, an adenosine A3 receptor gene was cloned using Original TA Cloning Kit (Funakoshi).
Next, the resulting plasmid was digested with a restriction enzyme XbaI (Takara Shuzo), treated with T4 DNA polymerase (Takara Shuzo) into end-blunted fragments and further digested with SalI (Takara Shuzo) to obtain adenosine A3 receptor gene fragments.
2) Preparation of a Plasmid for Expressing of Human Adenosine A3 Receptor […]

IC50 [µM]	Compound
0.0116	Cc1cc(C)cc(-c2nc(N)sc2-c2ccnc(OCc3ccccc3)c2)c1 [Example 1, [4-(3,5-dimethylphenyl)-5-(2-phenylmethyloxy-4-pyridyl)-1,3-thiazol-2-yl]amine]

Tested on: TNF-α production in THP-1 cells
Assay: Measurement of inhibiting activity of TNF-α production
Type: cell-based
Details: Homo sapiens, LPS 5 μg/mL, 4 hours, TNF-α in supernatant by ELISA, read-out: IC50 (concentration necessary for inhibiting TNF-α production by 50%)
Description: Measurement of Inhibiting Activity of TNF-α Production
After THP-1 cells which had been cultured on PRMI 1640 medium (manufactured by Life Technologies, Inc.) containing 1% non-activated bovine fetal serum (manufactured by Life Technologies, Inc., U.S.A.) and 10 mM HEPES (pH 7.5) seeded on a 96-well plate to 1×10^5 cells/well, 1 μL test compound dissolved in DMSO was added to there. After incubation at 37° C. for 1 hour in a CO2 incubator, LPS (Wako Pure Chemicals) was added to the final concentration 5 μg/mL. After cultured at 37° C. for 4 hours in a CO2 incubator, the supernatant was obtained by centrifugation. The concentration of TNF-α in the supernatant was measured with ELISA (R&D System, Quantikine Kit). The concentration (IC50 value) necessary for inhibiting TNF-α production by 50% was calculated by PRIMS 2.01 (Graphpad Software).

IC50 [µM]	Compound
0.14	Cc1cc(C)cc(-c2nc(N)sc2-c2ccnc(NCc3ccccc3)c2)c1 [Example 6, N-[4-[2-amino-4-(3,5-dimethylphenyl)-1,3-thiazol-5-yl]-2-pyridyl]benzylamine]
0.014	COc1ccc(-c2nc(N)sc2-c2ccnc(NC(=O)c3ccccc3)c2)cc1 [Example 4, N-[4-[2-amino-4-(4-methoxyphenyl)-1,3-thiazol-5-yl]-2-pyridyl]benzamide]
0.026	COc1ccc(-c2nc(NC(=O)c3cccnc3)sc2-c2ccnc(NC(=O)c3cccnc3)c2)cc1 [Example 3, N-[4-(4-methoxypheny)-5-[2-[(3-pyridylcarbonylamino)]-4-pyridyl]-1,3-thiazol-2-yl]nicotinamide]

Tested on: not given
Assay: not given
Details: not given

Compound	melting point [°C]
Cc1cccc(-c2nc(N)sc2-c2ccnc(N[C@@H](C)c3ccccc3)c2)c1 [Example Compound 23-7, (S)-N-[4-[2-amino-4-(3-methylphenyl)-1,3-thiazol-5-yl]-2-pyridyl]-N-(1-phenylethyl)amine]	93 to 96
CCc1nc(-c2cccc(C)c2)c(-c2ccnc(NC(=O)CCc3ccc(OC)cc3)c2)s1 [Example Compound 16-3, N-[4-[2-ethyl-4-(3-methylphenyl)-1,3-thiazol-5-yl]-2-pyridyl]-3-(4-methoxyphenyl)propionamide]	137 to 138
Cc1cccc(-c2nc(-c3ccc(S(C)(=O)=O)cc3)sc2-c2ccnc(NCc3ccc(F)cc3)c2)c1 [Example Compound 25-2, N-(4-fluorobenzyl)-N-[4-[4-(3-methylphenyl)-2-(4-methylsulfonylphenyl)-1,3-thiazol-5-yl]-2-pyridyl]amine]	155 to 158
Cc1cccc(-c2nc(-c3ccccc3Cl)sc2-c2ccnc(NC(=O)Cc3ccccc3)c2)c1 [Example Compound 15-5, N-(4-[2-(2-chlorophenyl)-4-(3-methylphenyl)-1,3-thiazol-5-yl]-2-pyridyl]phenylacetamide]	141 to 142
Cc1cccc(-c2nc(-c3ccc(S(C)(=O)=O)cc3)sc2-c2ccnc(NCCCc3ccccc3)c2)c1 [Example Compound 21-6, N-[4-[4-(3-methylphenyl)-2-(4-methylsulfonylphenyl)-1,3-thiazol-5-yl]-2-pyridyl]-N-(3-phenylpropyl) amine]	167 to 168
CSc1ccc(-c2nc(-c3cccc(C)c3)c(-c3ccnc(NC(=O)c4cccs4)c3)s2)cc1 [Example Compound 16-17, N-[4-[4-(3-methylphenyl)-2-(4-methylthiophenyl)-1,3-thiazol-5-yl]-2-pyridyl]-2-thiophenecarboxamide]	145 to 147
CCCCc1nc(-c2cccc(C)c2)c(-c2ccnc(NC(=O)CCc3ccccc3)c2)s1 [Example Compound 16-10, N-[4-[2-butyl-4-(3-methylphenyl)-1,3-thiazol-5-yl]-2-pyridyl]-3-phenylpropionamide]	77 to 78
Cc1cccc(-c2nc(-c3ccccc3Cl)sc2-c2ccnc(NCCCc3ccccc3)c2)c1 [Example Compound 19-16, N-[4-[2-(2-chlorophenyl)-4-(3-methylphenyl)-1,3-thiazol-5-yl]-2-pyridyl]-N-(3-phenylpropyl)amine]	101 to 102
CSc1ccc(-c2nc(-c3cccc(C)c3)c(-c3ccnc(NCCCc4ccccc4)c3)s2)cc1 [Example Compound 19-19, N-[4-[4-(3-methylphenyl)-2-(4-methylthiophenyl)-1,3-thiazol-5-yl]-2-pyridyl]-N-(3-phenylpropyl)amine]	106 to 107

Continued, values first:

melting point [°C]	Compound
107 to 109	Cc1cccc(-c2nc(-c3ccc(S(C)(=O)=O)cc3)sc2-c2ccnc(NCc3cccs3)c2)c1 [Example Compound 25-5, N-[4-[4-(3-methylphenyl)-2-(4-methylsulfonylphenyl)-1,3-thiazol-5-yl]-2-pyridyl]-N-(2-thienylmethyl)amine]
184 to 186	CSc1ccc(-c2nc(-c3cccc(C)c3)c(-c3ccnc(NC(=O)c4ccc5ccccc5c4)c3)s2)cc1 [Example Compound 16-18, N-[4-[4-(3-methylphenyl)-2-(4-methylthiophenyl)-1,3-thiazol-5-yl]-2-pyridyl]-2-naphthamide]
217 to 219	CC(=O)Nc1nc(-c2cc(C)cc(C)c2)c(-c2ccnc(NCc3ccccc3)c2)s1 [Example Compound 10, N-[5-(2-benzylamino-4-pyridyl)-4-(3,5-dimethylphenyl)-1,3-thiazol-2-yl]acetamide]
118 to 120	COc1ccc(-c2nc(C)sc2-c2ccnc(NC(=O)Cc3ccccc3)c2)cc1 [Example Compound 15-1, N-[4-[4-(4-methoxyphenyl)-2-methyl-1,3-thiazol-5-yl]-2-pyridyl]phenylacetamide]
237 to 241	CNc1nc(-c2ccc(OC)cc2)c(-c2ccnc(NC(=O)c3ccccc3)c2)s1 [Example Compound 11, N-[4-[4-(4-methoxyphenyl)-2-methylamino-1,3-thiazol-5-yl]-2-pyridyl]benzamide]
216 to 217	Cc1cccc(-c2nc(N)sc2-c2ccnc(NC(=O)c3ccccc3)c2)c1 [Example Compound 12, N-[4-[2-amino-4-(3-methylphenyl)-1,3-thiazol-5-yl]-2-pyridyl]benzamide]
103 to 104	CCCc1nc(-c2cccc(C)c2)c(-c2ccnc(NC(=O)CCc3ccccc3)c2)s1 [Example Compound 16-8, N-[4-[4-(3-methylphenyl)-2-propyl-1,3-thiazol-5-yl]-2-pyridyl]-3-phenylpropionamide]
